Drawing on patent US10065937B2, “FLT3 receptor antagonists” (INSERM (INSTITUT NATIONAL DE LA SANTÉ ET DE LA RECHERCHE …, priority 2014, dated 2018), this text covers IC50 for eight compounds.

One test has as its target T1, FLT3 receptor (Homo sapiens, UniProt P36888).
T1 construct: Auto-phosphorylation assays were performed on RS4-11 cells that express endogenous FLT3 receptor; endogenous in cells; host or cells: RS4-11 cells
T1 sequence (P36888 27-993): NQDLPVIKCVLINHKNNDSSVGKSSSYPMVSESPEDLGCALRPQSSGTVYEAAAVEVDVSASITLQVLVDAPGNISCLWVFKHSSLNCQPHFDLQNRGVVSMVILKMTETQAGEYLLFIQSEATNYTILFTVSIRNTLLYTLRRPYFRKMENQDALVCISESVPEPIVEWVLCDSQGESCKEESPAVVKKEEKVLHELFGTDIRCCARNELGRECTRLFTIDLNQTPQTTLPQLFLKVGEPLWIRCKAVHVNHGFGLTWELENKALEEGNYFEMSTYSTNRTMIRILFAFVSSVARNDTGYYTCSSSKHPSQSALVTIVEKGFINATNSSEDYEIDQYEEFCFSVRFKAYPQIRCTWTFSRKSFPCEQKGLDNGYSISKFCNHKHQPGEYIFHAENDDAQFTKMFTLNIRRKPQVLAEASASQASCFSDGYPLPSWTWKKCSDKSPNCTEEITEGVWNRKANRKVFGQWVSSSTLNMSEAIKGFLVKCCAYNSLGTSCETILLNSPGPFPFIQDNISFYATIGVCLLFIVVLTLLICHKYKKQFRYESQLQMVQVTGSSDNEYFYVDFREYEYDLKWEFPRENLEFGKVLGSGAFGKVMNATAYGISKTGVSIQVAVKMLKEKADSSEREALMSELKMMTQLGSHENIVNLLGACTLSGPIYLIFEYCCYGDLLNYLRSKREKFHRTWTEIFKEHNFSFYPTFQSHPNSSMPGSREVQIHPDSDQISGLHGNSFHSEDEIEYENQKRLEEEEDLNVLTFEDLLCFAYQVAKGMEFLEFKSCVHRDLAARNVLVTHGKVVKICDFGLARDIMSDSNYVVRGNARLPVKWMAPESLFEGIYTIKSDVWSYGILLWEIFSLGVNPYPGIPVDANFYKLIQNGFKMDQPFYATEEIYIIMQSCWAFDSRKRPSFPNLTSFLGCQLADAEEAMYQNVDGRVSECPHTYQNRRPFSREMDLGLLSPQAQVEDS
In words: Auto-phosphorylation competition assay on RS4-11 cells (HTRF). The following applies: RS4-11 cells expressing endogenous FLT3, 0.1 μM rh-FL; read-out: IC50, μM Autophosphorylation. It counts as cell-based. How it is done: Auto-Phosphorylation Assays
Auto-phosphorylation assays were performed on RS4-11 cells that express endogenous FLT3 receptor. A density of 50,000 cells per well was used to carry out this assay in suspension in 384-well small volume plates to determine the degree of phosphorylation of FLT3. In the aim to discover antagonist compounds and to develop this assay, we were determined the efficiency of FL on RS4-11 cells.
Both rh-FL and the compounds to be tested were diluted in Tag-lite labelling medium. Cells were incubated with 0.1 μM of rh-FL in the presence of increasing concentrations of compounds to be tested. In the plates containing RS4-11 cells (5 μl/well), 5 μl of compounds to be tested were added and incubated for 1 h at Room temperature prior to the addition of 2 μl of rh-FL at 0.1 μM. After incubation of 3 minutes at room temperature of rh-FL, 4 μl of lysis buffer were added and incubated for 2 h at room temperature. A mix of anti-FLT3 and an anti-TYR-969 FLT3 antibodies labeled with Lumi4-Tb and d2 respectively (4 μl) diluted in Tag-lite labelling medium, were added on cell lysate. Plates were then incubated at room temperature for 2 h or overnight before signal detection.
(§1) Signal was detected using an advanced fluorescence microplate reader (RUBYstar, BMG Labtech) equipped with a HTRF optic module allowing a donor excitation at 337 nm and a signal collection both at 665 nm and 620 nm. A frequency of 20 flashes/well is selected for the laser excitation. The signal was collected both at 665 nm and 620 nm using the following time-resolved settings: delay 50 μs, integration time 400 μs. HTRF ratios were obtained by dividing the acceptor signal (665 nm) by the donor signal (620 nm) and multiplying this value by 10,000. The 10,000 multiplying factor is used solely for the purpose of easier data handling.
(§2) Data Analysis and Statistics
(§3) Kd values of the fluorescent ligand were determined from saturation curves of the specific binding using GraphPad Prism software (GraphPad Software, Inc., San Diego, Calif.). Ki values of the compounds were determined from binding competition experiments according to the Cheng and Prusoff equation. EC50 and IC50 values of the rh-FL and compounds were determined from sigmoidal dose-response curves using GraphPad Prism software (GraphPad Software, Inc., San Diego, Calif.).
In general terms: In TR-FRET formats the signal depends on donor and acceptor labels being close together.

For another test, the target named is T2, SNAP tagged-FLT3 (Homo sapiens, UniProt P36888).
T2 construct: expressed in transfected cells
T2 sequence (P36888 27-993): T1 sequence (P36888 27-993)
In words: Tag-lite competition binding assay (Red-FL displacement, HTRF). The following applies: cells expressing SNAP tagged-FLT3, 0.5 nM Red-FL. Here is the method: Covalent Labeling of Cells Expressing the SNAP Tagged-FLT3
Labelling of Adherent Cells
Cell culture medium was removed from the 96 well plates and 100 nM of SNAP-Lumi4 Tb previously diluted in the Tag-lite labelling medium, was added under 100 μl per well, and further incubated 1 h at 37° C. under 5% CO2. The excess of SNAP-Lumi4-Tb was removed by washing each well 4 times with 100 μl of Tag-lite labelling medium.
Labelling of a Batch of Cells and Cells Freezing
After removal of the cell culture medium from a flask containing adherent cells, 5 ml of Tag-lite labelling medium containing 100 nM of SNAP-Lumi4-Tb was added to the flask and incubated for 1 h at 37° C. under 5% CO2. The excess of SNAP-Lumi4-Tb was removed by washing each flask 4 times with 5 ml of Tag-lite labelling medium. Cells were detached, pelleted by centrifugation (5 min at 1,300 rpm) and suspended in a cell culture medium containing 10% DMSO. Then, cells were distributed at 5 millions cells per vial and slowly frozen to −80° C. in isopropanol then transferred in liquid nitrogen for storage.
Prior to their use, the frozen cells were thawed quickly at 37° C., the medium was removed from the vials and the cells were suspended in the Tag-lite labelling medium at a cell-density of 1 million cells/ml.
Tag-lite binding assays were performed 24 h after transfection on fresh cells. When using frozen cells, binding assays were carried out immediately after cells thawing. When the assay was carried out on adherent cells in 96-well plates, the cell density was 50,000 cells per well, while a density of 10,000 cells per well was used to carry out binding assays in suspension in 384-well small volume plates.
Competition Binding Assay
Both Red-FL and the compounds to be tested were diluted in Tag-lite labelling medium. Cells were incubated with 0.5 nM Red-FL in the presence of increasing concentrations of compounds to be tested. In the plates containing labelled cells, 50 μl (or 10 μl in 384-well plates) of Tag-lite labelling medium, 25 μl (or 5 μl in 384-well plates) of compounds to be tested were added and incubated for 1 h at Room temperature prior to the addition of 25 μl (or 5 μl in 384-well plates) of Red-FL. Plates were then incubated at room temperature for 4 h or overnight before signal detection.
as §1, §2, §3

By IC50 is commonly meant the midpoint of a concentration-inhibition curve. Turning to `O=S(=O)(c1cccc(-c2nnc(-c3cc(Cl)ccc3O)[nH]2)c1)N1CCCCC1` [Example 4, 4-chloro-2-(5-(3-(piperidin-1-ylsulfonyl)phenyl)-4H-1,2,4-triazol-3-yl)phenol], the IC50 was 20 µM on FLT3 receptor and 26 µM at SNAP tagged-FLT3.
The matching figures for `O=C(Nc1cc(Cl)ccc1O)c1cccc(S(=O)(=O)N2CCCCC2)c1` [Example 1, N-(5-chloro-2-hydroxyphenyl)-3-(piperidin-1-ylsulfonyl) benzamide]: 58 µM and 11.8 µM.
The matching figures for `O=C(Nc1cc(Cl)ccc1-c1nnn[nH]1)c1cccc(S(=O)(=O)N2CCCCC2)c1` [Example 9, N-[5-chloro-2-(1H-1,2,3,4-tetrazol-5-yl)phenyl]-3-(piperidine-1-sulfonyl)benzamide]: 148 µM and 175 µM.
The like results for `O=C(Nc1cccc(S(=O)(=O)N2CCCCC2)c1)c1cc(Cl)ccc1O` [Example 10, 5-Chloro-2-hydroxy-N-[3-(piperidine-1sulfonyl)phenyl]benzamide] were, in that order, 116 µM and 4.6 µM.
Consider `O=S(=O)(c1cccc(-c2ncc(-c3cc(Cl)ccc3O)[nH]2)c1)N1CCCCC1` [Example 5, 4-chloro-2-(2-(3-(piperidin-1-ylsulfonyl)phenyl)-1H-imidazol-5-yl)phenol], for which the figures for the IC50 at FLT3 receptor and on SNAP tagged-FLT3 were 17 µM and 33 µM, respectively.
The matching figures for `NCCCN(C1CCCCC1)S(=O)(=O)c1cccc(-c2nc3cc(Cl)ccc3o2)c1` [Example 7, N-(3-aminopropyl)-3-(5-chloro-1,3-benzoxazol-2-yl)-N-cyclohexylbenzene-1-sulfonamide]: 63 µM and 10 µM.
The matching figures for `O=S(=O)(c1cccc(-c2nc3cccc(O)c3[nH]2)c1)N1CCCCC1` [Example 8, 2-[3-(1-piperidylsulfonyl)phenyl]-3H-benzimidazol-4-ol]: 68 µM and 98 µM.
The matching figures for `CN(C1CCCCCC1)S(=O)(=O)c1cccc(C(=O)Nc2cc(Cl)ccc2O)c1` [Example 11, N-(5-chloro-2-hydroxyphenyl)-3-[cycloheptyl(methyl)sulfamoyl]benzamide]: 41 µM and 27.5 µM.
